Laboratory results taken from patent US9475784B2, “4,6-diarylaminothiazines as BACE1 inhibitors and their use for the reduction of beta-amyloid production” (BRISTOL-MYERS SQUIBB COMPANY, priority 2012, dated 2016).
Where a name gives a salt, the structure may show the parent alone.

System: Aβ42 production in H4 cells stably transfected with APP751 containing the Swedish mutation (H4 APP751 SWE clone 8.20)
Experiment: Cellular assay for inhibition of Aβ1-42 production (H4 APP751 SWE clone 8.20)
Format: cell-based
Conditions: H4 APP751 SWE clone 8.20 cells, 19 h incubation
Procedure: Cellular Assays for Inhibition of Aβ1-40 and Aβ1-42 Production
H4 cells stably transfected with APP751 containing the Swedish mutation (H4 APP751 SWE clone 8.20, developed at BMS) were maintained in log phase through twice weekly passage at a 1:20 split. […] Following incubation for 19 h in 5% CO2 at 37° C., plates were briefly centrifuged (1000 rpm, 5 min). A 10 μl aliquot from each well was transferred to a second assay plate (Costar 3709) for Aβ40 measurements. Antibody cocktails were freshly prepared by dilution into 40 mM Tris-HCl (pH 7.4) with 0.2% BSA and added to assay plates. For Aβ42 measurements, antibodies specific for the Aβ42 neoepitope (565, developed at BMS; conjugated to the Wallac reagent (Perkin Elmer)) and the N-terminal sequence of Aβ peptide (26D6, developed at SIBIA; conjugated to APC (Perkin Elmer)) were mixed and 20 μl of the mixture was added to each well of the incubated cell plate yielding a final concentration of 0.8 ng/well 565 and 75 ng/well 26D6. For the Aβ40 measurements, antibodies specific for the Aβ40 neoepitope (TSD, developed at BMS; conjugated to the Wallac reagent (Perkin Elmer)) and 26D6 as described above were mixed and 20 μl of the mixture was added to the 10 μl aliquots which had been removed previously from the cell plate yielding a final concentration of 1.6 ng/well TSD and 17.5 ng/well 26D6. Assay plates containing antibodies were sealed with aluminum foil and incubated overnight at 4° C. Signal was determined using a Viewlux counter (Perkin Elmer) and IC50 values determined using curve fitting in CurveMaster (Excel Fit based).

[1] = Table 5B, 6-heterocyclic thiazine examples
[2] = Table 5A, 6-alkyl and 6-substituted phenyl thiazine examples

Structure (SMILES) | IC50 [1] [nM] | IC50 [2] [nM]
Cc1oncc1[C@]1(C)C[C@@H](c2cc(-c3cncnc3)c(F)cc2F)N=C(N)S1 (racemic) [Example 33, (±)-4-(2,4-difluoro-5-(pyrimidin-5-yl)phenyl)-6-methyl-6-(5-methylisoxazol-4-yl)-5,6-dihydro-4H-1,3-thiazin-2-amine] | 180 | 
Cc1noc(C)c1[C@]1(C)C[C@@H](c2cc(-c3cncnc3)c(F)cc2F)N=C(N)S1 (racemic) [Example 34, (±)-4-(2,4-difluoro-5-(pyrimidin-5-yl)phenyl)-6-(3,5-dimethylisoxazol-4-yl)-6-methyl-5,6-dihydro-4H-1,3-thiazin-2-amine•TFA] | 2700 | 
Cc1noc(C)c1[C@@H]1C[C@@H](c2cc(-c3cccc(C#N)c3)cs2)N=C(N)S1 (racemic) [Example 35, 3-(5-((±)-2-amino-6-(3,5-dimethylisoxazol-4-yl)-5,6-dihydro-4H-1,3-thiazin-4-yl)thiophen-3-yl)benzonitrile] | 300 | 
CC#Cc1cncc(-c2csc([C@@H]3C[C@@H](c4c(C)noc4C)SC(N)=N3)c2)c1 (racemic) [Example 36, (±)-6-(3,5-dimethylisoxazol-4-yl)-4-(4-(5-(prop-1-ynyl)pyridin-3-yl)thiophen-2-yl)-5,6-dihydro-4H-1,3-thiazin-2-amine] | 60 | 
Cc1noc(C)c1[C@@H]1C[C@@H](c2cc(NC(=O)c3ccc(Br)cn3)ccc2F)N=C(N)S1 (racemic) [Example 37, N-(3-((±)-2-amino-6-(3,5-dimethylisoxazol-4-yl)-5,6-dihydro-4H-1,3-thiazin-4-yl)-4-fluorophenyl)-5-bromopicolinamide] | 22 | 
Cc1noc(C)c1[C@@H]1C[C@@H](c2cc(NC(=O)c3ccc(Cl)cn3)ccc2F)N=C(N)S1 (racemic) [Example 38, N-(3-((±)-2-amino-6-(3,5-dimethylisoxazol-4-yl)-5,6-dihydro-4H-1,3-thiazin-4-yl)-4-fluorophenyl)-5-chloropicolinamide•TFA] | 11 | 
COc1ccc([C@@H]2C[C@@H](c3cc(-c4cncnc4)c(F)cc3F)N=C(N)S2)cc1OC (single isomer, unassigned) [Example 1A] |  | 290
COc1ccc([C@@H]2C[C@@H](c3cccc(-c4cncnc4)c3)N=C(N)S2)cc1OC (single isomer, unassigned) [Example 3A] |  | 1100
COc1ccc([C@@H]2C[C@@H](c3ccc(F)c(-c4cncnc4)c3)N=C(N)S2)cc1OC (single isomer, unassigned) [Example 7A] |  | 350
COc1ccc([C@@H]2C[C@@H](c3cc(-c4cncnc4)ccc3F)N=C(N)S2)cc1OC (single isomer, unassigned) [Example 8A] |  | 460
Cc1noc(C)c1[C@@H]1C[C@@H](c2cc(-c3cncnc3)c(F)cc2F)N=C(N)S1 (single isomer, unassigned) [Example 29A] | 60 | 
Cc1noc(C)c1[C@@H]1C[C@@H](c2cc(NC(=O)c3ccc(Cl)cn3)ccc2F)N=C(N)S1 (single isomer, unassigned) [Example 38A] | 5 | 
COc1ccc([C@@H]2C[C@@H](c3cccc(-c4cncnc4)c3)N=C(N)S2)cn1 [Example 10, (4S,6S)-6-(6-methoxypyridin-3-yl)-4-(3-(pyrimidin-5-yl)phenyl)-5,6-dihydro-4H-1,3-thiazin-2-amine•TFA] | 2100 | 
Cc1noc(C)c1[C@@H]1C[C@@](C)(c2cc(-c3cncnc3)c(F)cc2F)N=C(N)S1 [Example 39, (4S,6S)-4-(2,4-difluoro-5-(pyrimidin-5-yl)phenyl)-6-(3,5-dimethylisoxazol-4-yl)-4-methyl-5,6-dihydro-4H-1,3-thiazin-2-amine] | 8 | 
Cc1ncc(-c2cc([C@]3(C)C[C@@H](c4c(C)noc4C)SC(N)=N3)c(F)cc2F)cn1 [Example 40, (4S,6S)-4-(2,4-difluoro-5-(2-methylpyrimidin-5-yl)phenyl)-6-(3,5-dimethylisoxazol-4-yl)-4-methyl-5,6-dihydro-4H-1,3-thiazin-2-amine] | 186 | 
Cc1nc([C@@H]2C[C@@](C)(c3cc(-c4cncnc4)c(F)cc3F)N=C(N)S2)c(C)o1 [Example 41, (4S,6S)-4-(2,4-difluoro-5-(pyrimidin-5-yl)phenyl)-6-(2,5-dimethyloxazol-4-yl)-4-methyl-5,6-dihydro-4H-1,3-thiazin-2-amine] | 233 | 
Cc1nc(C)c([C@@H]2C[C@@](C)(c3cc(-c4cncnc4)c(F)cc3F)N=C(N)S2)o1 [Example 42, (4S,6S)-4-(2,4-difluoro-5-(pyrimidin-5-yl)phenyl)-6-(2,4-dimethyloxazol-5-yl)-4-methyl-5,6-dihydro-4H-1,3-thiazin-2-amine] | 108 | 
Cc1nc(C)c([C@@H]2C[C@@](C)(c3cc(-c4cncnc4)c(F)cc3F)N=C(N)S2)s1 [Example 43, (4S,6S)-4-(2,4-difluoro-5-(pyrimidin-5-yl)phenyl)-6-(2,4-dimethylthiazol-5-yl)-4-methyl-5,6-dihydro-4H-1,3-thiazin-2-amine] | 210 | 
CC#Cc1cncc(-c2cc(Cl)c([C@]3(C)C[C@@H](c4c(C)noc4C)SC(N)=N3)s2)c1 [Example 44, (4S,6S)-4-(3-chloro-5-(5-(prop-1-ynyl)pyridin-3-yl)thiophen-2-yl)-6-(3,5-dimethylisoxazol-4-yl)-4-methyl-5,6-dihydro-4H-1,3-thiazin-2-amine] | 30 | 
Cc1noc(C)c1[C@@H]1C[C@@](C)(c2ccc(F)cc2F)N=C(N)S1 [Example 45, (4S,6S)-4-(2,4-difluorophenyl)-6-(3,5-dimethylisoxazol-4-yl)-4-methyl-5,6-dihydro-4H-1,3-thiazin-2-amine] | 150 | 
Cc1noc(C)c1[C@@H]1C[C@@](C)(c2cc(-c3cnc(F)nc3)c(F)cc2F)N=C(N)S1 [Example 46, (4S,6S)-4-(2,4-difluoro-5-(2-fluoropyrimidin-5-yl)phenyl)-6-(3,5-dimethylisoxazol-4-yl)-4-methyl-5,6-dihydro-4H-1,3-thiazin-2-amine] | 390 | 
CC(=O)c1cc([C@]2(C)C[C@@H](c3c(C)noc3C)SC(N)=N2)c(F)cc1F [Example 47, 1-(5-((4S,6S)-2-amino-6-(3,5-dimethylisoxazol-4-yl)-4-methyl-5,6-dihydro-4H-1,3-thiazin-4-yl)-2,4-difluorophenyl)ethanone] | 220 | 
Cc1noc(CC(C)(C)O)c1[C@@H]1C[C@@](C)(c2ccc(F)cc2F)N=C(N)S1 [Example 48, 1-(4-((4S,6S)-2-amino-4-(2,4-difluorophenyl)-4-methyl-5,6-dihydro-4H-1,3-thiazin-6-yl)-3-methylisoxazol-5-yl)-2-methylpropan-2-ol] | 110 | 
Cc1noc(C)c1[C@@H]1C[C@@](C)(c2cc(F)cc(F)c2)N=C(N)S1 [Example 49, (4S,6S)-4-(3,5-difluorophenyl)-6-(3,5-dimethylisoxazol-4-yl)-4-methyl-5,6-dihydro-4H-1,3-thiazin-2-amine] | 270 | 
Cc1noc(C)c1[C@@H]1C[C@@](C)(c2cc(F)c(F)c(F)c2)N=C(N)S1 [Example 50, (4S,6S)-6-(3,5-dimethylisoxazol-4-yl)-4-methyl-4-(3,4,5-trifluorophenyl)-5,6-dihydro-4H-1,3-thiazin-2-amine] | 840 | 
CC[C@@]1(c2ccc(F)cc2F)C[C@@H](c2c(C)noc2C)SC(N)=N1 [Example 51, (4S,6S)-4-(2,4-difluorophenyl)-6-(3,5-dimethylisoxazol-4-yl)-4-ethyl-5,6-dihydro-4H-1,3-thiazin-2-amine] | 1300 | 
